In experiment [1] the target is mGluR4 (UniProt Q14833). As to the kind of experiment: mGluR4 potentiation assay (Ca2+ or thallium flux fluorescence, agonist EC20). Type of experiment: cell-based, human or rat. The settings on record: Table 3; read-out: mGlu4 EC50. Here is the method: The disclosed compounds and compositions can be evaluated for their ability to act as a potentiator of metabotropic glutamate receptor activity, in particular mGluR4 activity, by any suitable known methodology known in the art. For example, Chinese Hamster Ovary (CHO) cells transfected with human mGluR4 or HEK cells co-transfected with rat mGluR4 and the G-protein regulated Inwardly Rectifying Potassium channel (GIRK) were plated in clear bottom assay plates for assay in a Hamamatsu FDSS Fluorometric Plate Reader. The cells were loaded with either a Ca2+-sensitive fluorescent dye or the thallium responsive dye and the plates were washed and placed into a suitable kinetic plate reader. For human mGluR4 assays, a fluorescence baseline was established for 3-5 seconds, the disclosed compounds were then added to the cells, and the response in cells was measured. Approximately two and a half minutes later, a concentration of mGluR4 orthosteric agonist (e.g. glutamate or L-AP4) eliciting approximately 20% (EC20) of the maximal agonist response was added to the cells, and the response was measured. Two minutes later, a concentration of mGluR4 agonist (e.g. glutamate or L-AP4) eliciting 80% (EC80) of the maximal agonist response was added to the cells, and the response was measured. For rat mGluR4/GIRK experiments, a baseline was established for approximately five seconds, disclosed compounds were added, and either an EC20 or EC80 concentration of agonist was added approximately two and one half minutes later.
The above described assay operated in two modes. In the first mode, a range of concentrations of the disclosed compounds are added to cells, followed by a single fixed concentration of agonist. If the compound acts as a potentiator, an EC50 value for potentiation and a maximum extent of potentiation by the compound at this concentration of agonist is determined by non-linear curve fitting. If the compound acts as a noncompetitive antagonist, an IC50 value is determined by non-linear curve fitting. In the second mode, several fixed concentrations of the disclosed compounds are added to various wells on a plate, followed by a range in concentrations of agonist for each concentration of disclosed compound. The EC50 values for the agonist at each concentration of compound are determined by non-linear curve fitting. A decrease in the EC50 value of the agonist with increasing concentrations of the sample compound (a leftward shift of the agonist concentration-response curve) is an indication of the degree of mGluR4 potentiation at a given concentration of the sample compound. A decrease in the maximal response of the agonist with increasing concentrations of the sample compounds, with or without a rightward shift in agonist potency, is an indication of the degree of noncompetitive antagonism at mGluR4. The second mode also indicates whether the sample compounds also affect the maximum response to mGluR4 to agonists.

The target of experiment [2] is T1, mGluR5 (Rattus norvegicus, UniProt P31424).
T1 construct: expressed in transfected cells; host or cells: human embryonic kidney (HEK) cells
T1 sequence (P31424 21-1203): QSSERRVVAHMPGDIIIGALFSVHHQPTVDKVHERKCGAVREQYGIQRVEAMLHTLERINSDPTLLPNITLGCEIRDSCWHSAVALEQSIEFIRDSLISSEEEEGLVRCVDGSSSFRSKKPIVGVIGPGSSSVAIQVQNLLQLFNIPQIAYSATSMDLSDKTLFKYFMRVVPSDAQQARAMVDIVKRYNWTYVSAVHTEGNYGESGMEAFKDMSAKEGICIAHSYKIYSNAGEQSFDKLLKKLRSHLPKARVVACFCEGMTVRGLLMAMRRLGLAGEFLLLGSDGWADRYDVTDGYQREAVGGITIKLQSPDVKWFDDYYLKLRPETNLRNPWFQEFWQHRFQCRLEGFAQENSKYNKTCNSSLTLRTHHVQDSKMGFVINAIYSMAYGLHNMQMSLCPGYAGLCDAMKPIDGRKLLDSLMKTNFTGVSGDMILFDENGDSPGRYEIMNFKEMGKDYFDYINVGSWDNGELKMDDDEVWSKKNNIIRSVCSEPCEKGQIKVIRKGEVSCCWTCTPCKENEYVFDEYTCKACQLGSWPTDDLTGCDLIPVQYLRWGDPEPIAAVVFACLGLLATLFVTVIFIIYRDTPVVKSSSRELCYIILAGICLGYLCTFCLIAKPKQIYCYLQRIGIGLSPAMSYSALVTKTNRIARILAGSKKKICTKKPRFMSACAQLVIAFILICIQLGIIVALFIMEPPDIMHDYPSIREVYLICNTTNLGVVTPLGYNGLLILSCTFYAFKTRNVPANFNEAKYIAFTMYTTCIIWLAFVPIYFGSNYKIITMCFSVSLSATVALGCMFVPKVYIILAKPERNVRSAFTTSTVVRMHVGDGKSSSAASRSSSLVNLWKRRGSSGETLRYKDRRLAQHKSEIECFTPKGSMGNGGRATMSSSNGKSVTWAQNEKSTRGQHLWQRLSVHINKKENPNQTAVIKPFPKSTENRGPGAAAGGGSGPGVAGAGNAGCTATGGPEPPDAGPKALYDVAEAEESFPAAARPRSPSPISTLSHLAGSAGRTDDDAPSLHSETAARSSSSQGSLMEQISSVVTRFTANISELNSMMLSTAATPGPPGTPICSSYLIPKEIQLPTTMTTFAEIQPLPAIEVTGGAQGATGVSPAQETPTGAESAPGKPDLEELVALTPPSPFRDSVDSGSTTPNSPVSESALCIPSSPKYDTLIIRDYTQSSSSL
As to the kind of experiment: mGluR5 negative allosteric modulation, decrease in response to non-maximal glutamate in HEK cells. Format: cell-based. Conditions: Table 3; read-out: mGlu5 IC50. An excerpt:
Embodiments of the present invention are also mGluR5 negative allosteric modulators. Accordingly, in one aspect, the invention relates to compounds that are also useful as negative allosteric modulators of the metabotropic glutamate receptor subtype 5 (mGluR5). Negative allosteric modulators are non-competitive antagonists and can include a range of maximal antagonist activity from partial antagonists to inverse agonists. In one aspect, the present invention relates to compounds that allosterically modulate mGluR5 receptor activity, affecting the sensitivity of mGluR5 receptors to agonists without acting as orthosteric agonists themselves. […] The compounds of the invention can be useful in the treatment neurological and psychiatric disorders associated with glutamate dysfunction and other diseases in which metabotropic glutamate receptors are involved, as further described herein. […] In further aspect, the human embryonic kidney cells are transfected with human mGluR5. In yet a further aspect, human embryonic kidney cells are transfected with mGluR5 of a mammal.
In further aspect, the human embryonic kidney cells are transfected with human mGluR5. In yet a further aspect, human embryonic kidney cells are transfected with mGluR5 of a mammal.

4 molecules from US9108963B2, “Pyrazolopyridine, pyrazolopyrazine, pyrazolopyrimidine, pyrazolothiophene and pyrazolothiazole compounds as MGLUR4 allosteric potentiators, compositions, and methods of treating neurological dysfunction” (Vanderbilt University, priority 2010, dated 2015) can be followed below.

Usually EC50 stands for the midpoint of the concentration-response curve. A word on the IC50: it is the point on the concentration scale where inhibition reaches its midpoint. `FC(F)(F)c1cccnc1Nc1ccc(Nc2n[nH]c3cccnc23)cc1Cl` [Example 124, 2-chloro-N4-(1H-pyrazolo[4,3-b]pyridin-3-yl)-N1-(3-(trifluoromethyl)pyridin-2-yl)benzene-1,4-diamine]: the half-maximal effective concentration (EC50) in experiment [1] worked out at 1560 nM. The concentration for half-maximal inhibition (IC50) in experiment [2] came out at 1540 nM.
Taken in the same sequence, the figures for `Clc1cc(Nc2n[nH]c3cccnc23)ccc1Nc1cnc2ccccc2n1` [Example 126, 2-chloro-N4-(1H-pyrazolo[4,3-b]pyridin-3-yl)-N1-(quinoxalin-2-yl)benzene-1,4-diamine] were 38 nM and 3700 nM.
For `Clc1cc(Nc2n[nH]c3cccnc23)ccc1Nc1cccnc1` [Example 127, 2-chloro-N4-(1H-pyrazolo[4,3-b]pyridin-3-yl)-N1-(pyridin-3-yl)benzene-1,4-diamine], the concentration for a half-maximal effect (EC50) in experiment [1] was determined as 53.1 nM. For the same molecule, the IC50 in experiment [2] is 22 nM.
On the same counts, the results for `Cc1ccnc(Nc2ccc(Nc3n[nH]c4cccnc34)cc2Cl)c1` [Example 129, 2-chloro-N1-(4-methylpyridin-2-yl)-N4-(1H-pyrazolo[4,3-b]pyridin-3-yl)benzene-1,4-diamine] are 19.4 nM and 970 nM.
